Experimental data from ChEMBL document CHEMBL1201862, “PubChem BioAssay data set” (2004).
Values belong to the compound of their own block, whether it stands above or below them. Active and inactive are the calls of the source.

Assays:
[1] = target: T1, Short transient receptor potential channel 4 (Mus musculus, UniProt Q9QUQ5); assay: block of DAMGO-driven TRPC4 calcium entry – cell-based, HEK293 TRPC4/mu-opioid, Fluo-4 calcium, dose response (AID 434942); assay type: functional;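 also: potency of inhibitors blocking the TRPC4 calcium response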
T1 sequence (Q9QUQ5 whole entry): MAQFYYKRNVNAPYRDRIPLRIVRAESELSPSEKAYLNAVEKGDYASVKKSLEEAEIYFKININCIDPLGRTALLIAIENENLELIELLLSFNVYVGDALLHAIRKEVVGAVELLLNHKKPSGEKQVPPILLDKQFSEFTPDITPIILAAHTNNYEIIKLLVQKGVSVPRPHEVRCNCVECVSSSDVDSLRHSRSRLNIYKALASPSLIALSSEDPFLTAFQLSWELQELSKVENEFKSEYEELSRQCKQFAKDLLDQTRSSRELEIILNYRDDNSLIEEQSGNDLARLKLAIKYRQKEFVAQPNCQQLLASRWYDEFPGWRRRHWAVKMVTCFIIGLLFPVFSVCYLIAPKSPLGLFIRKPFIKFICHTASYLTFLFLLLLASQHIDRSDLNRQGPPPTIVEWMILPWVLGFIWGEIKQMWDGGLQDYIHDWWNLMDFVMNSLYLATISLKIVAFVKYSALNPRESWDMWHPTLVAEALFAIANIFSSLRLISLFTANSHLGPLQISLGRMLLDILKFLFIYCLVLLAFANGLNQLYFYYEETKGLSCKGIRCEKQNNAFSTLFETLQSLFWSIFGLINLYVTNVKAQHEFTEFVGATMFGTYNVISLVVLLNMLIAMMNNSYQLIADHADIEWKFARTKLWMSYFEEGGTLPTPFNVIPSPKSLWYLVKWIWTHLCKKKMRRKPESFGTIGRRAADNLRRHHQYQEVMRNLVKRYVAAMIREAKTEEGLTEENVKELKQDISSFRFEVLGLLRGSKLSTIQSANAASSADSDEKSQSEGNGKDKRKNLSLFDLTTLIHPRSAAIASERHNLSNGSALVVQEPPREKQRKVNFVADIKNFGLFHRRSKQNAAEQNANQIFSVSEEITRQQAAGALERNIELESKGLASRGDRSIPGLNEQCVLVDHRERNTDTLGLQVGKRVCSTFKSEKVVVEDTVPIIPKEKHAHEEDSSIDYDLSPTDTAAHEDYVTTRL

Escherichia coli [2] = assay: microbe, parasite or virus in culture
Escherichia coli [3] = assay: microbe, parasite or virus in culture; remark: listed apart in the source
Troponin, cardiac muscle = Troponin, cardiac muscle (Homo sapiens, UniProt P19429+P45379+P63316); assay: Fluorescence-based biochemical high throughput dose response assay for activators of the calcium sensitivity of cardiac Regulated Thin Filaments (RTF). [Related pubchem assays (depositor defined):AID493008, AID493018, AID504382, AID504383]; assay type: protein-complex assay
[4] = target: T2, Corticotropin-releasing factor receptor 2/Corticotropin-releasing factor-binding protein (Homo sapiens, UniProt P24387+Q13324); assay: activators of CRF receptor 2 with binding protein – uHTS hits, confirmation (AID 602473); assay type: functional; settings: read-out: EC50_Mean
T2 sequence (Q13324 whole entry): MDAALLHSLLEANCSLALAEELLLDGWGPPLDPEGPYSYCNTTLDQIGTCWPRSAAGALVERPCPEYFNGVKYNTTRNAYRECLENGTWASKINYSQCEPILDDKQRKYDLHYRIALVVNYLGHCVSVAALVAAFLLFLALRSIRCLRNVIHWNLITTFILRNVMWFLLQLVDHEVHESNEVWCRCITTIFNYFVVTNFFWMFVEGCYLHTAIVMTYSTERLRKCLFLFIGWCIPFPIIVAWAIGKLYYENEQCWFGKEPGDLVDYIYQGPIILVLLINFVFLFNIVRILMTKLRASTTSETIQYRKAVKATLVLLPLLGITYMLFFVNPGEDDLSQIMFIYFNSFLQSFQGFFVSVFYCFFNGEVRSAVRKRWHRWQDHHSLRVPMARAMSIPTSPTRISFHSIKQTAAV
T2 sequence (P24387 whole entry): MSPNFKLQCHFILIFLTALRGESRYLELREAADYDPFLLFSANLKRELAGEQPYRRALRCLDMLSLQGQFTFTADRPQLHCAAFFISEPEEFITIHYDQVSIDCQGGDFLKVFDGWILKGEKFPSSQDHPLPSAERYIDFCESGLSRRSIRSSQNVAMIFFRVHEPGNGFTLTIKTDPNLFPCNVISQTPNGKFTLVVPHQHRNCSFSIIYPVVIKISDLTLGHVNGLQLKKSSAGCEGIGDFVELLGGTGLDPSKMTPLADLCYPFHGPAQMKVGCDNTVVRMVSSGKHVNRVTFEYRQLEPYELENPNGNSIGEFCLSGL

Cytochrome P450 3A4 [5] = target: T3, Cytochrome P450 3A4 (Homo sapiens, UniProt P08684);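 also: CYP3A4 tested as one member of a cytochrome P450 panel screen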
Mu-type opioid receptor = Mu-type opioid receptor (Homo sapiens, UniProt P35372); assay: (§1) Counterscreen for agonists of heterodimerization of the mu 1 (OPRM1) and delta 1 (OPRD1) opioid receptors: Luminescence-based cell-based high throughput dose response assay to identify agonists of OPRM1 homodimerization.; assay type: functional
[6] = target: 5-hydroxytryptamine receptor 5A (Homo sapiens, UniProt P47898); assay: Counterscreen for agonists of OPRM1-OPRD1 heterodimerization: luminescence-based cell-based high throughput dose response assay to identify agonists of 5-hydroxytryptamine (serotonin) 5A receptor (HTR5A). [Related pubchem assays (depositor defined):AID504326, AID504355, AID504692, AID504904, AID504905]; assay type: functional
[7] = target: Delta-type opioid receptor (Homo sapiens, UniProt P41143); assay: as §1, with “of OPRD1” for “of OPRM1”, “homodimerization. [Related pubchem assays (depositor defined):AID504326, AID504355, AID504692, AID504904, AID504905]” for “homodimerization.”; assay type: functional
Cytochrome P450 2D6 = Cytochrome P450 2D6 (Homo sapiens, UniProt P10635);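 also: CYP2D6 member of a cytochrome P450 panel assay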
Cytochrome P450 3A4 [8] = target: T3, Cytochrome P450 3A4; remark: listed apart in the source
[9] = target: DNA dC->dU-editing enzyme APOBEC-3G (Homo sapiens, UniProt Q9HC16); assay type: functional;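 also: Dose-response counterscreen measuring inhibition of APOBEC3G DNA deaminase activity, run while confirming APOBEC3A inhibitors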
Protein skinhead-1 = target: T4, Protein skinhead-1 (Caenorhabditis elegans, UniProt P34707); assay type: functional
T4 sequence (P34707 whole entry): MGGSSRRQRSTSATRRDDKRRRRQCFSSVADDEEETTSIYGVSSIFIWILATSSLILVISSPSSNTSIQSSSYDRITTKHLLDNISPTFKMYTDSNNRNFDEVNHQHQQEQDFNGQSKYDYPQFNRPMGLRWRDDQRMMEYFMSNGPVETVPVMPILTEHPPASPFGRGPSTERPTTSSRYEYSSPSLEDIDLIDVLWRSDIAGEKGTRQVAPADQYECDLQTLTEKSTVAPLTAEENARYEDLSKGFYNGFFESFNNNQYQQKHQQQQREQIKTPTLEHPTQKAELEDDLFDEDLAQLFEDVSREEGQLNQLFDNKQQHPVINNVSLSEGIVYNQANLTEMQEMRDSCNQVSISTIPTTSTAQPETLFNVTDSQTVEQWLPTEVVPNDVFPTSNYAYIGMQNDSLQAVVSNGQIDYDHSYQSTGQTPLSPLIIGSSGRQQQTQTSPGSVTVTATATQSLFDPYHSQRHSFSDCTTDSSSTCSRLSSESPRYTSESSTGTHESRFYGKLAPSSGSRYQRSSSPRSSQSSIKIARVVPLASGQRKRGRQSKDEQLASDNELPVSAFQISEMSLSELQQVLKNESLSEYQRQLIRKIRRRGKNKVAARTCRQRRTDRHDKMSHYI

[10] = target: T1, Short transient receptor potential channel 4; assay: calcium entry via TRPC4 opening agents – cell-based, HEK293 TRPC4/mu-opioid, Fluo-4 calcium, dose response (AID 434937); assay type: functional
[11] = target: DNA dC->dU-editing enzyme APOBEC-3A (Homo sapiens, UniProt P31941); assay: Dose Response confirmation of small molecule APOBEC3A DNA Deaminase Inhibitors via a fluorescence-based single-stranded DNA deaminase assay. [Related pubchem assays (depositor defined):AID493011, AID493024]; assay type: functional
[12] = target: Dual specificity tyrosine-phosphorylation-regulated kinase 1A (Rattus norvegicus, UniProt Q63470); assay type: biochemical, Homo sapiens

T3 sequence (P08684 whole entry): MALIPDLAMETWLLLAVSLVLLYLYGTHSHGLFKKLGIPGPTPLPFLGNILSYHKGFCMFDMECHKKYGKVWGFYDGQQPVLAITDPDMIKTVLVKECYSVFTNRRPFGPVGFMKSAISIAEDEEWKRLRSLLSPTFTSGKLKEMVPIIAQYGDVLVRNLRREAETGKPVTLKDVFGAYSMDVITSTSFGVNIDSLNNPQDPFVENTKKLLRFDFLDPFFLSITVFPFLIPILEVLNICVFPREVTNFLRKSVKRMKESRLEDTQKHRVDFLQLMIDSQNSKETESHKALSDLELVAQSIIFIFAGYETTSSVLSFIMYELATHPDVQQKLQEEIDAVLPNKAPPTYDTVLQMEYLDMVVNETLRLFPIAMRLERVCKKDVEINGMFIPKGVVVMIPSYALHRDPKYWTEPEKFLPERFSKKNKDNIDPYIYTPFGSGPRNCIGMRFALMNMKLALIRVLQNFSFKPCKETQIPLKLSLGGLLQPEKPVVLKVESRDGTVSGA
Sequence of Cytochrome P450 2D6 (P10635 whole entry): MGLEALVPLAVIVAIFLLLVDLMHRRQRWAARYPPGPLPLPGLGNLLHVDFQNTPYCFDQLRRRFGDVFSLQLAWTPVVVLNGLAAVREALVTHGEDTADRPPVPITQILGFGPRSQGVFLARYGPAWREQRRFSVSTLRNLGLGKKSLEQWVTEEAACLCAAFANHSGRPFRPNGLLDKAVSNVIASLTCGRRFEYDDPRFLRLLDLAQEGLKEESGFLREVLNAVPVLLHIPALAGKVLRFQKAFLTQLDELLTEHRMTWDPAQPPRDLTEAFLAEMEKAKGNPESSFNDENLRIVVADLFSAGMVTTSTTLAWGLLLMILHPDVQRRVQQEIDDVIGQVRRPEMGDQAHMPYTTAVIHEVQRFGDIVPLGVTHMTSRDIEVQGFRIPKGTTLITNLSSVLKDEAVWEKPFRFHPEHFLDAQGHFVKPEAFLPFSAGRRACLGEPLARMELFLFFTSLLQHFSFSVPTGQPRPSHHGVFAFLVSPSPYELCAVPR
Sequence of DNA dC->dU-editing enzyme APOBEC-3A (P31941 whole entry): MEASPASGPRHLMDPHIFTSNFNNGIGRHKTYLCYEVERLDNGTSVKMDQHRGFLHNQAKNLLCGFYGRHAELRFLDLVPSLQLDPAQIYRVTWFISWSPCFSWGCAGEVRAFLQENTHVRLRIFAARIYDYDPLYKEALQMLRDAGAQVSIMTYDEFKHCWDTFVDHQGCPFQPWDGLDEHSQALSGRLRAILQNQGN
Sequence of 5-hydroxytryptamine receptor 5A (P47898 whole entry): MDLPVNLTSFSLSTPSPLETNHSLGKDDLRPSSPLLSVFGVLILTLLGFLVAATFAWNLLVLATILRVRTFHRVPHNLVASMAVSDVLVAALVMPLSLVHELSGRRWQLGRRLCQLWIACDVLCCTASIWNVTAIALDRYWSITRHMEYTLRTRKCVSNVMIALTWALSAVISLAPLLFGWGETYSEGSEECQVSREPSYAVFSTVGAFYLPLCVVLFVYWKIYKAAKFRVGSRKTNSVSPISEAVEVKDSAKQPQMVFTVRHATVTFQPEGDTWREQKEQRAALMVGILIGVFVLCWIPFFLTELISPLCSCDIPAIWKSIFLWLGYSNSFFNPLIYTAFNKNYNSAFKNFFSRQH
Sequence of DNA dC->dU-editing enzyme APOBEC-3G (Q9HC16 whole entry): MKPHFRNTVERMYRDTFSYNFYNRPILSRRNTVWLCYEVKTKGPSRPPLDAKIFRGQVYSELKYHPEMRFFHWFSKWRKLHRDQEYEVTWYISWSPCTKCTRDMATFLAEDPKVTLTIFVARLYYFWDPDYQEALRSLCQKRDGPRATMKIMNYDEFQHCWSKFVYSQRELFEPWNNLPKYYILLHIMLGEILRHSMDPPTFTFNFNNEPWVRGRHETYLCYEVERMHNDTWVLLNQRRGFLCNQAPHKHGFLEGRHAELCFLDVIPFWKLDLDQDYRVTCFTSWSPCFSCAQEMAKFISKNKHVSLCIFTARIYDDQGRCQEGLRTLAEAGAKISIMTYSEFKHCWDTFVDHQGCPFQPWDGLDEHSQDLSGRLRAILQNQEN
Sequence of Mu-type opioid receptor (P35372 whole entry): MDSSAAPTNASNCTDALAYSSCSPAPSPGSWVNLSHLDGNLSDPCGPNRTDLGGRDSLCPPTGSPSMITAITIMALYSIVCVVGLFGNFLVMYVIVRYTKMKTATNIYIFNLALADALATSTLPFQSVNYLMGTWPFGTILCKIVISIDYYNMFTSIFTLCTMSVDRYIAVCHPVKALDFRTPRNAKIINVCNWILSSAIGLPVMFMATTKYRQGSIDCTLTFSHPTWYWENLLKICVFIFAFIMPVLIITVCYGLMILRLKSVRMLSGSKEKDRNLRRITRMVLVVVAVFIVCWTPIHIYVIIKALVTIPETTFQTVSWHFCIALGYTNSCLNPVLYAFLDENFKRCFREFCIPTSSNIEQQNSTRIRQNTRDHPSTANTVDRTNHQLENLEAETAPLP
Sequence of Delta-type opioid receptor (P41143 whole entry): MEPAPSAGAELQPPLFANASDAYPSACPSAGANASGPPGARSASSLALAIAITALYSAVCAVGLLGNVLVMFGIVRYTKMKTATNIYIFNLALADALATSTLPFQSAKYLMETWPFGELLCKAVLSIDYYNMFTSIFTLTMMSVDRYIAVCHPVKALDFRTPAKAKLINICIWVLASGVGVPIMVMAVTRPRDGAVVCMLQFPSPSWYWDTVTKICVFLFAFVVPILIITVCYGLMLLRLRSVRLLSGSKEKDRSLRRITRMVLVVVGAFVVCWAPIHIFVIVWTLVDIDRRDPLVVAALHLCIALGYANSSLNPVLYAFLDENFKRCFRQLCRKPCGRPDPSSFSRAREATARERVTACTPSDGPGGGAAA

SMILES: c1ccc(NC(=NCc2ccco2)c2ccccc2)cc1
EC50 [1]: 18.8 µM (active) | AC50 (Escherichia coli [2]): 47.6 µM (active)

SMILES: CCOC(=O)N1CCC(NC(=O)c2oc3c(c2C)-c2n[nH]cc2CC3)CC1
AC50 (Escherichia coli [3]): 18.4 µM (active) | AC50 (Escherichia coli [2]): 67 µM (active)

EC50 (Troponin, cardiac muscle): 17.9 µM (inactive) | EC50 [4]: 22.2 µM (active)
SMILES: Cc1ccc(N2C(=O)C3C(C(=O)c4ccccc4)=NN(c4ccccc4)C3C2=O)cc1 (configuration not stated)

AC50 (Cytochrome P450 3A4 [5]): inconclusive
SMILES: N#Cc1cccc(-c2nc3cnc(Oc4cccc(Cl)c4)nc3n(C3CC3)c2=O)c1

EC50 (Mu-type opioid receptor): > 92.5 µM (inactive) | EC50 [6]: > 92.5 µM (inactive) | EC50 [7]: > 92.5 µM (inactive)
SMILES: OC(CNCCC(c1ccccc1)c1ccccc1)COc1ccccc1 (configuration not stated)

AC50 (Cytochrome P450 2D6): inconclusive | AC50 (Cytochrome P450 3A4 [8]): 5.01 µM (inconclusive)
SMILES: CO[C@@H]1COC(=O)[C@@H](C)NC(=O)C/C=C\[C@@H](C)[C@H](NS(=O)(=O)c2ccc(C)cc2)COC(=O)[C@H](C)NC(=O)C/C=C\[C@H]1C

SMILES: COC(=O)C1=C(C)N(Cc2ccccc2)C(NCCc2ccccn2)=N[C@H]1c1cccc(F)c1
IC50 [9]: 4.79 µM (active) | IC50 (Protein skinhead-1): > 100 µM (inactive) | EC50 [10]: 5.96 µM (active) | IC50 [11]: 2.67 µM (active)

AC50 [12]: 3.74 µM (active)
SMILES: O=c1oc2c(-c3cccc(F)c3)cc(O)cc2s1
